Results as given in the NIST ThermoML archive (doi:10.1016/j.jct.2008.07.008).
± gives the expanded uncertainty stated by the source.

Tests used:
[1] = refractive index (Na D-line) (dimensionless); conditions: 101.33 kPa, Liquid, Standard Abbe refractometry
[2] = refractive index (Na D-line) (dimensionless); xn = mol fraction of the nth substance listed; conditions: 101 kPa, Liquid, Standard Abbe refractometry

N#Cc1ccccc1 [benzonitrile]
refractive index ([1]; 277.43 K): 1.5321 ± 0.0004 | refractive index ([1]; 278.33 K): 1.5318 ± 0.0004 | refractive index ([1]; 279.49 K): 1.5312 ± 0.0004 | refractive index ([1]; 280.36 K): 1.5307 ± 0.0004 | refractive index ([1]; 280.38 K): 1.5307 ± 0.0004 | refractive index ([1]; 280.86 K): 1.5305 ± 0.0004 | refractive index ([1]; 281.97 K): 1.5299 ± 0.0004 | refractive index ([1]; 284.13 K): 1.5289 ± 0.0004

N#Cc1ccccc1 [benzonitrile] + CCCCCCCC
refractive index ([2]; 280.36 K, x1 = 0.092): 1.4104 ± 0.0004 | refractive index ([2]; 280.36 K, x1 = 0.244): 1.4248 ± 0.0004 | refractive index ([2]; 280.36 K, x1 = 0.344): 1.4353 ± 0.0005 | refractive index ([2]; 280.36 K, x1 = 0.558): 1.4613 ± 0.0005 | refractive index ([2]; 280.36 K, x1 = 0.644): 1.4726 ± 0.0005 | refractive index ([2]; 280.36 K, x1 = 0.762): 1.4901 ± 0.0005 | refractive index ([2]; 280.36 K, x1 = 0.821): 1.4996 ± 0.0005 | refractive index ([2]; 280.36 K, x1 = 0.927): 1.5176 ± 0.0005 | refractive index ([2]; 280.36 K, x1 = 1): 1.5307 ± 0.0004 | refractive index ([2]; 282.93 K, x1 = 0.558): 1.4599 ± 0.0005 | refractive index ([2]; 283.35 K, x1 = 0.344): 1.4339 ± 0.0005 | refractive index ([2]; 283.66 K, x1 = 0.558): 1.4597 ± 0.0005 | refractive index ([2]; 283.67 K, x1 = 0.344): 1.4337 ± 0.0005 | refractive index ([2]; 284.57 K, x1 = 0.344): 1.4333 ± 0.0005 | refractive index ([2]; 284.78 K, x1 = 0.558): 1.4591 ± 0.0005 | refractive index ([2]; 285.65 K, x1 = 0.344): 1.4327 ± 0.0005 | refractive index ([2]; 285.74 K, x1 = 0.558): 1.4586 ± 0.0005 | refractive index ([2]; 286.64 K, x1 = 0.558): 1.4583 ± 0.0005 | refractive index ([2]; 286.73 K, x1 = 0.344): 1.4322 ± 0.0005 | refractive index ([2]; 287.64 K, x1 = 0.558): 1.4578 ± 0.0005 | refractive index ([2]; 287.77 K, x1 = 0.344): 1.4318 ± 0.0005 | refractive index ([2]; 288.61 K, x1 = 0.558): 1.4574 ± 0.0005 | refractive index ([2]; 288.82 K, x1 = 0.344): 1.4313 ± 0.0005

CCCCCCCC [octane]
refractive index ([1]; 277.8 K): 1.404 ± 0.0004 | refractive index ([1]; 279.68 K): 1.4032 ± 0.0004 | refractive index ([1]; 280.36 K): 1.4028 ± 0.0004 | refractive index ([1]; 280.51 K): 1.4027 ± 0.0004 | refractive index ([1]; 281.66 K): 1.4021 ± 0.0004 | refractive index ([1]; 282.65 K): 1.4017 ± 0.0004 | refractive index ([1]; 283.88 K): 1.4012 ± 0.0004 | refractive index ([1]; 284.73 K): 1.4007 ± 0.0004

CCCCCCCC [octane] + N#Cc1ccccc1
refractive index ([2]; 280.36 K, x2 = 0): 1.4028 ± 0.0004
